Source: patent US20180042953A1, “ANTIBACTERIAL INJECTABLE PHARMACEUTICAL COMPOSITION” (OBSHCHESTVO S OGRANICHENNOY OTVETSTVENNOSTYU "VIK - …, priority 2012, published 2018)

Test: Azithromycin solubility in organic solvents
Format: physicochemical

- Maximum azithromycin conc. (solvent 2-Pyrrolidone): 28.9%
- Maximum azithromycin conc. (solvent 3,3-dimethyl-2-pyrrolidone): 26.4%
- Maximum azithromycin conc. (solvent Dimethylacetamide): 32.1%
- Maximum azithromycin conc. (solvent Dimethylsulfoxide): 26.4%
- Maximum azithromycin conc. (solvent N-ethoxy-2-pyrrolidone): 23.3%
- Maximum azithromycin conc. (solvent N-ethyl-2-pyrrolidone): 25.8%
- Maximum azithromycin conc. (solvent N-methyl-2-pyrrolidone): 31.2%
- Maximum azithromycin conc. (solvent N-octyl-2-pyrrolidone): 21.5%
- Maximum azithromycin conc. (solvent Propylene glycol): 13.4%
- Maximum azithromycin conc. (solvent Transcutol): 10.2%
Compound: CC[C@H]1OC(=O)[C@H](C)[C@@H](O[C@H]2C[C@@](C)(OC)[C@@H](O)[C@H](C)O2)[C@H](C)[C@@H](O[C@@H]2O[C@H](C)C[C@H](N(C)C)[C@H]2O)[C@](C)(O)C[C@@H](C)CN(C)[C@H](C)[C@@H](O)[C@]1(C)O [Azithromycin, (2R,3S,4R,5R,8R,10R,11R,12S,13S,14R)-13-[(2,6-dioxy-3-C-methyl-3-O-methyl-a-L-ribohexopyranozyl)oxy]-2-ethyl-3,4, 10-trihydroxy-3,5,6,8,10,12,14-heptamethyl-11-[[3,4,6-trideoxy-3-(dimethylamino)-b-D-xylo-hexapyranozyl]oxy]-1-ox-6-azacyclopentadecane-15-one]
